# Patent US12662490B2, “Heterocyclic compounds” (Hoffmann-La Roche Inc., priority 2019, dated 2026)
# Target: T1, MAGL (Homo sapiens, UniProt Q99685)
# T1 sequence (Q99685 1-303): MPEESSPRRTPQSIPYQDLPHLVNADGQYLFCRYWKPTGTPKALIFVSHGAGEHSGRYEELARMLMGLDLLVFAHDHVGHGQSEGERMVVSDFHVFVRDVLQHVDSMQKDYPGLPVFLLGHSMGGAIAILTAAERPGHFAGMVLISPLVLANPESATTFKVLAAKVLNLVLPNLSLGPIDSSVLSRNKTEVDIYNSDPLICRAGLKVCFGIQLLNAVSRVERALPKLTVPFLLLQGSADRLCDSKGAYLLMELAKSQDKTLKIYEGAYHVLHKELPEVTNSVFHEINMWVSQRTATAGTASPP
# Experiment: 2-AG assay (MAGL inhibitory activity; hydrolysis of 2-arachidonoylglycerol to arachidonic acid followed by mass spectrometry)
# Assay type: biochemical
# Settings: 15 min preincubation at RT, 8 μM 2-arachidonoylglycerol, 30 min at RT, RapidFire MS readout
# Procedure: Compounds were profiled for MAGL inhibitory activity by determining the enzymatic activity by following the hydrolysis of the natural substrate 2-arachidonoylglycerol (2-AG) resulting in arachidonic acid, which can be followed by mass spectrometry. This assay is hereinafter abbreviated “2-AG assay”.
# The 2-AG assay was carried out in 384 well assay plates (PP, Greiner Cat #784201) in a total volume of 20 μL. Compound dilutions were made in […] (VWR Chemicals 23500.297) in a polypropylene plate in 3-fold dilution steps to give a final concentration range in the assay from 12.5 μM to […]. 0.25 μL compound dilutions (100% DMSO) were added to 9 μL MAGL in assay buffer (50 mM TRIS (GIBCO, 15567-027), 1 mM EDTA (Fluka, 03690-100 mL), 0.010 (v/v) Tween. After shaking, the plate was incubated for 15 min at RT. To start the reaction, 10 μL 2-arachidonoylglycerol in assay buffer was added. The final concentrations in the assay was […] and 8 μM 2-arachidonoylglyerol. After shaking and 30 min incubation at RT, the reaction was quenched by the addition of 40 μL of ACN containing 4 μM of d8-arachidonic acid. The amount of arachidonic acid was traced by an online SPE system (Agilent Rapidfire) coupled to a triple quadrupole mass spectrometer (Agilent 6460). A C18 SPE cartridge (G9205A) was used in an ACN/water liquid setup. The mass spectrometer was operated in negative electrospray mode following the mass transitions 303.1→259.1 for arachidonic acid and 311.1→267.0 for d8-arachidonic acid. The activity of the compounds was calculated based on the ratio of intensities [arachidonic acid/d8-arachidonic acid].
row,IC50,SMILES
1,1080 nM,"Cc1cncnc1-c1cccc(C(=O)N2CCN3C[C@@H](c4ccc(F)c(Cl)c4)OC[C@@H]3C2)c1Cl [Example 35, [(3R,9aS)-3-(3-chloro-4-fluoro-phenyl)-3,4,6,7,9,9a-hexahydro-1H-pyrazino[2,1-c][1,4]oxazin-8-yl]-[2-chloro-3-(5-methylpyrimidin-4-yl)phenyl]methanone]"
2,7.4 nM,"O=C(c1cccc(-c2cnc[nH]2)c1Cl)N1CCN2C[C@@H](c3ccc(F)c(Cl)c3)OC[C@@H]2C1 [Example 36, [(3R,9aS)-3-(3-chloro-4-fluoro-phenyl)-3,4,6,7,9,9a-hexahydro-1H-pyrazino[2,1-c][1,4]oxazin-8-yl]-[2-chloro-3-(1H-imidazol-5-yl)phenyl]methanone]"
3,277 nM,"Cc1cccnc1-c1cccc(C(=O)N2CCN3C[C@@H](c4ccc(F)c(Cl)c4)OC[C@@H]3C2)c1Cl [Example 37, [(3R,9aS)-3-(3-chloro-4-fluoro-phenyl)-3,4,6,7,9,9a-hexahydro-1H-pyrazino[2,1-c][1,4]oxazin-8-yl]-[2-chloro-3-(3-methyl-2-pyridyl)phenyl]methanone]"
4,1.9 nM,"O=C(c1cccc(-c2cn[nH]c2)c1Cl)N1CCN2C[C@@H](c3ccc(F)c(Cl)c3)OC[C@@H]2C1 [Example 38, [(3R,9aS)-3-(3-chloro-4-fluoro-phenyl)-3,4,6,7,9,9a-hexahydro-1H-pyrazino[2,1-c][1,4]oxazin-8-yl]-[2-chloro-3-(1H-pyrazol-4-yl)phenyl]methanone]"
5,49.7 nM,"Cc1c(-c2cccc(C(=O)N3CCN4C[C@@H](c5ccc(F)c(Cl)c5)OC[C@@H]4C3)c2Cl)cnn1C [Example 39, [(3R,9aS)-3-(3-chloro-4-fluoro-phenyl)-3,4,6,7,9,9a-hexahydro-1H-pyrazino[2,1-c][1,4]oxazin-8-yl]-[2-chloro-3-(1,5-dimethylpyrazol-4-yl)phenyl]methanone]"
6,160 nM,"Cc1nocc1-c1cccc(C(=O)N2CCN3C[C@@H](c4ccc(F)c(Cl)c4)OC[C@@H]3C2)c1Cl [Example 40, [(3R,9aS)-3-(3-chloro-4-fluoro-phenyl)-3,4,6,7,9,9a-hexahydro-1H-pyrazino[2,1-c][1,4]oxazin-8-yl]-[2-chloro-3-(3-methylisoxazol-4-yl)phenyl]methanone]"
7,63.8 nM,"Cc1n[nH]c2ccc(C(=O)N3CCN4C[C@@H](c5ccc(F)c(Cl)c5)OC[C@@H]4C3)c(Cl)c12 [Example 41, [(3R,9aS)-3-(3-chloro-4-fluoro-phenyl)-3,4,6,7,9,9a-hexahydro-1H-pyrazino[2,1-c][1,4]oxazin-8-yl]-(4-chloro-3-methyl-1H-indazol-5-yl)methanone]"
8,48.6 nM,"O=C(c1cccc(N2CC3(COC3)C2)c1Cl)N1CCN2C[C@@H](c3ccc(F)c(Cl)c3)OC[C@@H]2C1 [Example 42, [(3R,9aS)-3-(3-chloro-4-fluoro-phenyl)-3,4,6,7,9,9a-hexahydro-1H-pyrazino[2,1-c][1,4]oxazin-8-yl]-[2-chloro-3-(2-oxa-6-azaspiro[3.3]heptan-6-yl)phenyl]methanone]"
9,120 nM,"O=C(c1cccc(N2CCOCC2)c1Cl)N1CCN2C[C@@H](c3ccc(F)c(Cl)c3)OC[C@@H]2C1 [Example 43, [(3R,9aS)-3-(3-chloro-4-fluoro-phenyl)-3,4,6,7,9,9a-hexahydro-1H-pyrazino[2,1-c][1,4]oxazin-8-yl]-(2-chloro-3-morpholino-phenyl)methanone]"
10,50 nM,"O=C(c1cccc(-c2cnn[nH]2)c1Cl)N1CCN2C[C@@H](c3ccc(F)c(Cl)c3)OC[C@@H]2C1 [Example 44, [(3R,9aS)-3-(3-chloro-4-fluoro-phenyl)-3,4,6,7,9,9a-hexahydro-1H-pyrazino[2,1-c][1,4]oxazin-8-yl]-[2-chloro-3-(1H-triazol-5-yl)phenyl]methanone]"
11,19.4 nM,"COc1cccc(C(=O)N2CCN3C[C@@](O)(c4ccc(F)c(Cl)c4)OC[C@@H]3C2)c1Cl [Example 45, [(3R,9aS)-3-(3-chloro-4-fluoro-phenyl)-3-hydroxy-1,4,6,7,9,9a-hexahydropyrazino[2,1-c][1,4]oxazin-8-yl]-(2-chloro-3-methoxy-phenyl)methanone]"
12,178 nM,"COc1cccc(C(=O)N2CCN3C[C@](O)(c4ccc(F)c(Cl)c4)OC[C@H]3C2)c1Cl [Example 46, [(3S,9aR)-3-(3-chloro-4-fluoro-phenyl)-3-hydroxy-1,4,6,7,9,9a-hexahydropyrazino[2,1-c][1,4]oxazin-8-yl]-(2-chloro-3-methoxy-phenyl)methanone]"
13,1 nM,"O=C(c1cccc(-c2c[nH]nc2F)c1Cl)N1CCN2C[C@@H](c3ccc(F)c(Cl)c3)OC[C@@H]2C1 [Example 49, [(3R,9aS)-3-(3-chloro-4-fluoro-phenyl)-3,4,6,7,9,9a-hexahydro-1H-pyrazino[2,1-c][1,4]oxazin-8-yl]-[2-chloro-3-(3-fluoro-1H-pyrazol-4-yl)phenyl]methanone]"
14,418 nM,"O=C(c1cccc(-c2c[nH]nc2F)c1Cl)N1CCN2C[C@H](c3ccc(F)c(Cl)c3)OC[C@@H]2C1 [Example 50, [(3S,9aS)-3-(3-chloro-4-fluoro-phenyl)-3,4,6,7,9,9a-hexahydro-1H-pyrazino[2,1-c][1,4]oxazin-8-yl]-[2-chloro-3-(3-fluoro-1H-pyrazol-4-yl)phenyl]methanone]"
15,13.8 nM,"O=C(c1cccc(-c2c[nH]nc2F)c1Cl)N1CCN2C[C@@](O)(c3ccc(C(F)(F)F)nc3)OC[C@@H]2C1 [Example 65, [(3R,9aS)-3-hydroxy-3-[6-(trifluoromethyl)pyridin-3-yl]-1,4,6,7,9,9a-hexahydropyrazino[2,1-c][1,4]oxazin-8-yl]-[2-chloro-3-(3-fluoro-1H-pyrazol-4-yl)phenyl]methanone]"
16,51.8 nM,"O=C(c1cccc(-c2c[nH]nc2F)c1Cl)N1CCN2C[C@@](O)(c3ccc(OC(F)F)cc3)OC[C@@H]2C1 [Example 69, [2-chloro-3-(3-fluoro-1H-pyrazol-4-yl)phenyl]-[(3R,9aS)-3-[4-(difluoromethoxy)phenyl]-3-hydroxy-1,4,6,7,9,9a-hexahydropyrazino[2,1-c][1,4]oxazin-8-yl]methanone]"
17,4030 nM,"COc1cccc(C(=O)N2CCN3C[C@@](O)(c4nc5ccccc5n4C)OC[C@@H]3C2)c1Cl [Example 71, [(3S,9aS)-3-hydroxy-3-(1-methylbenzimidazol-2-yl)-1,4,6,7,9,9a-hexahydropyrazino[2,1-c][1,4]oxazin-8-yl]-(2-chloro-3-methoxy-phenyl)methanone]"
18,61.4 nM,"N#Cc1cc([C@@H]2CN3CCN(C(=O)c4cccc(-c5c[nH]nc5F)c4Cl)C[C@H]3CO2)ccc1F [Example 72, 5-[(3R,9aS)-8-[2-chloro-3-(3-fluoro-1H-pyrazol-4-yl)benzoyl]-3,4,6,7,9,9a-hexahydro-1H-pyrazino[2,1-c][1,4]oxazin-3-yl]-2-fluoro-benzonitrile]"
19,2210 nM,"COc1cccc(C(=O)N2CCN3C[C@H](c4cc(Cl)c[nH]c4=O)OC[C@@H]3C2)c1Cl [Example 74, 3-[(3S,9aS)-8-(2-chloro-3-methoxy-benzoyl)-3,4,6,7,9,9a-hexahydro-1H-pyrazino[2,1-c][1,4]oxazin-3-yl]-5-chloro-1H-pyridin-2-one]"
20,850 nM,"COc1cccc(C(=O)N2CCN3C[C@@H](c4cc(Cl)c[nH]c4=O)OC[C@@H]3C2)c1Cl [Example 75, 3-[(3R,9aS)-8-(2-chloro-3-methoxy-benzoyl)-3,4,6,7,9,9a-hexahydro-1H-pyrazino[2,1-c][1,4]oxazin-3-yl]-5-chloro-1H-pyridin-2-one]"
21,15.5 nM,"O=C(c1cccc(-c2cnco2)c1Cl)N1CCN2C[C@@](O)(c3ccc(F)c(Cl)c3)OC[C@@H]2C1 [Example 76, [(3R,9aS)-3-(3-chloro-4-fluoro-phenyl)-3-hydroxy-1,4,6,7,9,9a-hexahydropyrazino[2,1-c][1,4]oxazin-8-yl]-(2-chloro-3-oxazol-5-yl-phenyl)methanone]"
22,46.3 nM,"O=C(c1cccc(-c2c[nH]nc2F)c1Cl)N1CCN2C[C@@H](c3cc(Cl)c[nH]c3=O)OC[C@@H]2C1 [Example 77, 3-[(3R,9aS)-8-[2-chloro-3-(3-fluoro-1H-pyrazol-4-yl)benzoyl]-3,4,6,7,9,9a-hexahydro-1H-pyrazino[2,1-c][1,4]oxazin-3-yl]-5-chloro-1H-pyridin-2-one]"
23,130 nM,"O=C(c1cccc(-c2c[nH]nc2F)c1F)N1CCN2C[C@@](O)(c3ccc(C(F)(F)F)nc3)OC[C@@H]2C1 [Example 78, [(3R,9aS)-3-hydroxy-3-[6-(trifluoromethyl)-3-pyridyl]-1,4,6,7,9,9a-hexahydropyrazino[2,1-c][1,4]oxazin-8-yl]-[2-fluoro-3-(3-fluoro-1H-pyrazol-4-yl)phenyl]methanone]"
